Patent US20050215551A1, “1-[2H-1-benzopyran-2-one-8-yl]- piperazine derivatives for the treatment of movement disorders” (SOLVAY PHARMACEUTICALS B.V., priority 2004, published 2005)

Experiments:
[1] = biological target: 5-HTreuptake (Homo sapiens, UniProt P31645); test: Binding 5-HT reuptake; conditions: radioligand [3H]-paroxetine, read-out: Ki(nM) Compound 1
Procedure: (§1) Receptor binding data were obtained by CEREP (128, rue Danton, 92500 Rueil-Malmaison, France) or at Solvay Pharmaceuticals B.V., using well documented standard procedures. Affinity for 5-HT1A receptors for instance, was determined by testing the ability of the compounds of the invention to displace [^3H]-2-(di-n-propylamino)-8-hydroxytetralin ([^3H]-8-OH-DPAT) from its specific binding sites in rat frontal cortex homogenates. This test is based on the method described by Gozlan et al. (Nature, 305, (1983), pages 140-142).
(§2) The binding data collected in the table below were either obtained by CEREP (128, rue Danton, 92500 Rueil-Malmaison, France) or at Solvay Pharmaceuticals B.V., using well documented standard procedures.

[2] = biological target: β2-adrenergic (Homo sapiens, UniProt P07550); test: Receptor binding β2-adrenergic; conditions: radioligand [3H]-CGP 12177, read-out: Ki(nM) Compound 1
β2-adrenergic, sequence (P07550 whole entry): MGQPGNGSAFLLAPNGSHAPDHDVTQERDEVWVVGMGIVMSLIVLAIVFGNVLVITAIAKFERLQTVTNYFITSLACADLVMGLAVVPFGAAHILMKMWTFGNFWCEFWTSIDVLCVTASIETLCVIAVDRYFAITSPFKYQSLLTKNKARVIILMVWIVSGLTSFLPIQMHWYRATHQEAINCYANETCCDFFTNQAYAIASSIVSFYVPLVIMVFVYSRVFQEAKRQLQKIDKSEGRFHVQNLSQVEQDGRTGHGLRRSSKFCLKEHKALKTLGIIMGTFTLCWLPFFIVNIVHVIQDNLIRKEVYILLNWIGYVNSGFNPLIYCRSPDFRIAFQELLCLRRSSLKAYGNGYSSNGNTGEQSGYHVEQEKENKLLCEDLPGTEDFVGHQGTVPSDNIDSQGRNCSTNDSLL
Procedure: as §1, §2

[3] = biological target: Dopaminereuptake (Homo sapiens, UniProt Q01959); test: Binding Dopamine reuptake; conditions: radioligand [3H]-GBR 12935, read-out: Ki(nM) Compound 1
Dopaminereuptake, sequence (Q01959 whole entry): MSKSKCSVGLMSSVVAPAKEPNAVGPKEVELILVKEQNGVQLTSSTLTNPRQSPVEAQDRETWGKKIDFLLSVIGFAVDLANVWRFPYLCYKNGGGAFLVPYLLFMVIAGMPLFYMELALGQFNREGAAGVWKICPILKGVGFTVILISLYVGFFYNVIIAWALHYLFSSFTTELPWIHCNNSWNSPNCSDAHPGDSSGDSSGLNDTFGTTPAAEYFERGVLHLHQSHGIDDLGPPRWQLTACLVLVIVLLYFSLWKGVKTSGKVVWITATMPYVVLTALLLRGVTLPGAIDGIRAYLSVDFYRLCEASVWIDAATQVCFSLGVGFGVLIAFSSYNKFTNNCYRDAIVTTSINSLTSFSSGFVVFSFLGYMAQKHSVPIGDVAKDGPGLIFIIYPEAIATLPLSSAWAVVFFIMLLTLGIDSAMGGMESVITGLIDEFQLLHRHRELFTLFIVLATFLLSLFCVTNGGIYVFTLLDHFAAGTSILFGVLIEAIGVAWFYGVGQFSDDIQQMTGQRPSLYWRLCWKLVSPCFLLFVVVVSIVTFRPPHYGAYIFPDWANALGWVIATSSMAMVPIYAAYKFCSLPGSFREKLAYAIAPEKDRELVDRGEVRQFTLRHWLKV
Procedure: as §1, §2

[4] = biological target: Adenosine-A3 (Homo sapiens, UniProt P0DMS8); test: Receptor binding Adenosine-A3; conditions: radioligand [3H]-AB-MECA, read-out: Ki(nM) Compound 1
Adenosine-A3, sequence (P0DMS8 whole entry): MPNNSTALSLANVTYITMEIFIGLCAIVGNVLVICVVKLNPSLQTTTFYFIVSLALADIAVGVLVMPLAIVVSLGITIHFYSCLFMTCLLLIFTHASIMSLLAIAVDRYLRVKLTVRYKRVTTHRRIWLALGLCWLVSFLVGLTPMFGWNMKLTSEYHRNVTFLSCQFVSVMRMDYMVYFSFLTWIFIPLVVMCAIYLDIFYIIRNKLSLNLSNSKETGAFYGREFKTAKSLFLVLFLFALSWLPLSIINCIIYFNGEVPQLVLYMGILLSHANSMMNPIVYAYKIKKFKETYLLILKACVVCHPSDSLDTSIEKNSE
Procedure: as §1, §2

[5] = biological target: CRF (Homo sapiens, UniProt P34998); test: Receptor binding CRF; conditions: radioligand [125I]-oCRF, read-out: Ki(nM) Compound 1
CRF, sequence (P34998 24-415): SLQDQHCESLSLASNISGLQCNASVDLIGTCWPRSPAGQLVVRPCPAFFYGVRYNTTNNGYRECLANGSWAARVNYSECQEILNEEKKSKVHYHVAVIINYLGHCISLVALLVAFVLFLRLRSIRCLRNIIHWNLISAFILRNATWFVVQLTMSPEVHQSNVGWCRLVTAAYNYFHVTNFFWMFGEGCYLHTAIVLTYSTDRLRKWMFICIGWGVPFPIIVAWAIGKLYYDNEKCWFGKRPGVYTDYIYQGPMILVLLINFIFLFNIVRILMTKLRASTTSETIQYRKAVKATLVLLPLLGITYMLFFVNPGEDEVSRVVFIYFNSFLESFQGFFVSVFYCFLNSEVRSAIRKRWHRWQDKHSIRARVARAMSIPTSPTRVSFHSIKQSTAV
Procedure: as §1, §2

[6] = biological target: Neurokinin-NK3 (Homo sapiens, UniProt P29371); test: Receptor binding Neurokinin-NK3; conditions: radioligand [3H]-SR 142801, read-out: Ki(nM) Compound 1
Neurokinin-NK3, sequence (P29371 whole entry): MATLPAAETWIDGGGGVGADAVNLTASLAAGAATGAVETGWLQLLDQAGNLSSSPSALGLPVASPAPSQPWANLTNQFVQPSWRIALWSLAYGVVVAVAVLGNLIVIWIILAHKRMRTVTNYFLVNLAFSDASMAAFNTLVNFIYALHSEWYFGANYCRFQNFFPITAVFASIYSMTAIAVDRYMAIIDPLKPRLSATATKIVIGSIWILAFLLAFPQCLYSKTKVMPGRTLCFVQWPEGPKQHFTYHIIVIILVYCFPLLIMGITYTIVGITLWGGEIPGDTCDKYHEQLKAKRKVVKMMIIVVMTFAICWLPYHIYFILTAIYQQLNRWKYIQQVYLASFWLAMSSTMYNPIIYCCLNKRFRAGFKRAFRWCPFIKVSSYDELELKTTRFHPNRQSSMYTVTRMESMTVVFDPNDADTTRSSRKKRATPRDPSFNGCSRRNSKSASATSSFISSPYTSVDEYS
Procedure: as §1, §2

[7] = biological target: Prostaglandin-H2 (Homo sapiens, UniProt P21731); test: Receptor binding Prostaglandin-H2; conditions: radioligand [3H]-SQ 29548, read-out: Ki(nM) Compound 1
Prostaglandin-H2, sequence (P21731 whole entry): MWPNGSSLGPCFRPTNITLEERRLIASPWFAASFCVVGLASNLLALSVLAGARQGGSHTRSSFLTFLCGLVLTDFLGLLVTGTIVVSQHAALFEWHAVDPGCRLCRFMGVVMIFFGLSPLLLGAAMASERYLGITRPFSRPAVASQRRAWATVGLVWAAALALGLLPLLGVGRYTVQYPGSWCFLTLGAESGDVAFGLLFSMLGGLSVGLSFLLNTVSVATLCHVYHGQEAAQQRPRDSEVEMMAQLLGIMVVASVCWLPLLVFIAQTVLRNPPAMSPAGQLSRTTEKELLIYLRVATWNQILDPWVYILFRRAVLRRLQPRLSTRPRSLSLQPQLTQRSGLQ
Procedure: as §1, §2

5-HTreuptake, sequence (P31645 whole entry): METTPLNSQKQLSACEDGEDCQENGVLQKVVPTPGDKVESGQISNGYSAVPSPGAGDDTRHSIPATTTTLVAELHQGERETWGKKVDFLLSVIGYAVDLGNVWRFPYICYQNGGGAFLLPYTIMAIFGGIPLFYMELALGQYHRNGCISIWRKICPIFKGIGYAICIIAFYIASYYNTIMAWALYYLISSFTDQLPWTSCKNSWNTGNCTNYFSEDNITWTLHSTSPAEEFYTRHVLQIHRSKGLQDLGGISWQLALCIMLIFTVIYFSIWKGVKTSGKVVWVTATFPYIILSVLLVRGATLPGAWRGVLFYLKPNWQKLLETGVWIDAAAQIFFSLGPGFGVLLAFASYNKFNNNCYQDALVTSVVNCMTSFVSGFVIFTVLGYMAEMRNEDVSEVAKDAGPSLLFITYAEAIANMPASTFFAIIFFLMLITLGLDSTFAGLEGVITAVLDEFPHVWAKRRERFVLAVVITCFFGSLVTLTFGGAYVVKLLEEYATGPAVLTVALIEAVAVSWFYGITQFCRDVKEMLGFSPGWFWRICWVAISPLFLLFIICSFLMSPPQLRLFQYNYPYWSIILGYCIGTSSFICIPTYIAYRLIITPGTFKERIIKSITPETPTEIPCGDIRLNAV

For Nc1cc2cccc(N3CCNCC3)c2oc1=O [Compound 1, 3-amino-8-(1-piperazinyl)-2H-1-benzopyran-2-one], the Ki [1] was > 1000 nM, the Ki [2] was 40 nM and the Ki [3] was > 1000 nM. For the same compound, the Ki [4] was > 1000 nM, the Ki [5] was > 10000 nM and the Ki [6] was > 1000 nM. For the same compound, the Ki [7] was > 1000 nM.
